From patent US9012420B2, “Aptamer for chymase, and use thereof” (Ribomic Inc., priority 2009, dated 2015)
Oligonucleotides are written 5' to 3', each unit as a sugar letter and its base; * is a phosphorothioate linkage, no mark a phosphodiester; rarer units and linkages stand in square brackets, end groups in braces. Plain capitals give the bases only. r = 2'-OH (RNA); f = 2'-fluoro

T1: chymase (recombinant, manufactured by SIGMA) (Homo sapiens, UniProt P23946)
T1 construct: purchased SIGMA; host or cells: yeast
T1 sequence (P23946 22-247): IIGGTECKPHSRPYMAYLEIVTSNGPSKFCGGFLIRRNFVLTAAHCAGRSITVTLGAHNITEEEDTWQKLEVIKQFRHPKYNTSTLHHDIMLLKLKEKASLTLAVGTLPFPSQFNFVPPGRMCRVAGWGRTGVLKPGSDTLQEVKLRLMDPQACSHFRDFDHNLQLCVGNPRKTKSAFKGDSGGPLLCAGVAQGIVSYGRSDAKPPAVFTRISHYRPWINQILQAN

T2: chymase (Homo sapiens, UniProt P23946)
T2 sequence (P23946 22-247): T1 sequence (P23946 22-247)

B1: 7 (nucleic acid)
chain: rGrGrGrAfCrGrGfUrArGrGrArAfUfUfCrAfCfCfUfUfUfCfCrArAfUfUrGfUrGrArArArGrArArAfCrAfCrArArArArArGrArArAfUrGrAfCrAfUfCrAfUrArGrArArGrArGfCrGrGfCfCrGfC
modifications: aptamer
B2: 34 (nucleic acid)
chain: rGrGrGrAfCrGrGfUrArGrGrArAfUfUfCfUrGfCfCrGfCrArAfCfCfCrArAfUrGrArArArAfCrGrArArGrAfUrArGrArGrAfUrArArAfUfCrGrArAfCrAfUrArGrArArGrArGfCrGrGfCfCrGfC
modifications: aptamer
B3: 32 (nucleic acid)
chain: rGrGrGrAfCrGrGfUrArGrGrArAfUfUfCrGfUfCfCfUfCrAfUrGfUfCfUrAfUfUfUfUrGfCrArGrAfUrArGrAfCfUfUrArArArGfCrArArAfCrAfUrArGrArArGrArGfCrGrGfCfCrGfC
B4: 6 (nucleic acid)
chain: rGrGrGrAfCrGrGfUrArGrGrArAfUfUfCfUrAfCrGrGfUfCfUrGfUrGfUrGrArArAfUfUrGrArArAfCrAfCrAfCrArArArGrArAfCrArAfUrArGrAfCrAfUrArGrArArGrArGfCrGrGfCfCrGfC
modifications: aptamer
B5: 5 (nucleic acid)
chain: rGrGrGrAfCrGrGfUrArGrGrArAfUfUfCfCfCrAfCfUfUrGfUfCfUfUfUrGrArGrGfCrArArGrArArAfUfUrGfUrAfUfUfCfCrGrArArGrArArGfCrAfUrArGrArArGrArGfCrGrGfCfCrGfC
modifications: aptamer
B6: 33 (nucleic acid)
chain: rGrGrGrAfCrGrGfUrArGrGrArAfUfUfCfCfUrGfUfCfUfUfUfUfCfCfCrAfCrGfCrArAfCrArArAfUfUrAfCrArGrArGfCfUfUfUrGfCrArArArAfCrAfUrArGrArArGrArGfCrGrGfCfCrGfC
modifications: aptamer

Legend:
[1] = target: T1, chymase (recombinant, manufactured by SIGMA); assay: Surface plasmon resonance (Biacore T100), chymase immobilized on CM5 chip, nucleic acid injected as analyte; type: binding; set-up: key to Binding activity as determined using Biacore: ++: a sequence that binds to chymase significantly more strongly than the negative control 40N; +: a sequence that binds to chymase equivalently compared with the negative control 40N; key to binding activity using Biacore: ++: significant binding to chymase than SEQ ID NO: 58 which is a negative control; +: similar binding level as SEQ ID NO: 58 which is a negative control; conditions: for binding activity using Biacore: Table 5, same manner as Example 4, compared with SEQ ID NO: 58; for Binding activity as determined using Biacore: Table 4, about 4000 RU chymase immobilized, nucleic acid 0.3 μM, solution C, compared with 40N
Protocol: In another method, chymase is first immobilized onto a sensor chip, the amount immobilized being about 4000 RU. 20 μL of an aptamer solution for analyte, prepared at 0.01 μg/μL, is injected, and the binding of the aptamer to chymase is detected. An RNA containing a random nucleotide sequence of 30 or 40 nucleotides is used as a negative control.
Whether these nucleic acids bind to chymase was determined by the surface plasmon resonance method. Measurements were taken using Biacore T100 (manufactured by GE Healthcare) as described below. About 4000 RU of chymase (recombinant, manufactured by SIGMA) was immobilized on the sensor chip surface of a CM5 chip, using an amine coupling kit. 20 μL of each nucleic acid, prepared at 0.3 μM, as an analyte was injected at a flow rate of 20 μL/min. Solution C was used as a running buffer. The method of evaluation used was the same as Example 1.
All nucleic acids of SEQ ID NO: 58-68 were prepared by chemical synthesis. Whether these nucleic acids are bound to chymase was assessed by surface plasmon resonance method in the same manner as in Example 4. The inhibitory activity on chymase was measured in the same manner as in Example 3.
All nucleic acids of SEQ ID NOs: 73-79, 56(8), 80, 56(10), 81, 56(13)-56(14), 83-87 were prepared by chemical synthesis. Whether these nucleic acids are bound to chymase was assessed by surface plasmon resonance method in the same manner as in Example 4.
All nucleic acids of SEQ ID NO: 88-120, 121, 69, 122, 123, 70-72, 124-131 were prepared by chemical synthesis. Whether these nucleic acids are bound to chymase was assessed by surface plasmon resonance method in the same manner as in Example 4.

[2] = target: T1, chymase (recombinant, manufactured by SIGMA); assay: Chymase inhibitory activity using synthetic substrate Suc-Ala-Ala-Pro-Phe-MCA; type: biochemical
Protocol: A first method employs a synthetic substrate. A useful chymase substrate is Suc-Ala-Ala-Pro-Phe-MCA (4-methylcoumaryl-7-amide group) (manufactured by Peptide Institute, Inc.), which contains the 4-amino acid peptide “Ala-Ala-Pro-Phe”, a standard substrate for chymotrypsin-like proteases.
The assay is performed using a 96-well plate (F16 Black Maxisorp Fluoronunc, manufactured by Nunc), with a reaction mixture volume of 100 μL, in a buffer solution (solution C; see Example 2 below). First, each nucleic acid is prepared in solution C to obtain 50 μL solutions. After 10 μL of the 1 mM substrate prepared in solution C is added, the plate is set to the microplate reader SpectraMax190 (manufactured by Molecular Devices Corporation), and incubated at 37° C. for 5 minutes. Separately, 0.05 μg of chymase (recombinant, manufactured by SIGMA) is diluted in solution C, and 40 μL of this dilution is incubated at 37° C. for 5 minutes. The chymase solution is added to the mixture of the nucleic acid and substrate to initiate an enzyme reaction. The plate containing the reaction mixture is set to the microplate reader SpectraMax190 (manufactured by Molecular Devices Corporation), and examined for time-dependent changes in the fluorescence intensity at 37° C. for 5 minutes (excitation wavelength 380 nm, detection wavelength 460 nm). A linear approximation of the increase in the fluorescence of the AMC (7-amino-4-methylcoumarine) released from the substrate by chymase activity is generated, and its slope is taken as the initial reaction velocity. For control, samples are treated and analyzed in the same manner in two cases: use of a nucleic acid pool containing a random sequence of 30 or 40 nucleotides (negative control), and use of chymostatin, a known chymotrypsin-like serine protease inhibitor (positive control). Taking the initial reaction velocity without the nucleic acid and inhibitor as a 100% enzyme activity, the inhibitory rate for each test substance is calculated, and the inhibitor concentration required to cause a 50% inhibition of the enzyme activity (IC50) is determined.
Whether the nucleic acids shown by SEQ ID NO: 4-20, 22-34, and 38-48 inhibit the enzyme activity of chymase was determined as described below. The chymase substrate used was Suc-Ala-Ala-Pro-Phe-MCA (manufactured by Peptide Institute, Inc.), which contains the 4-amino-acid peptide Ala-Ala-Pro-Phe, a standard substrate for chymotrypsin-like proteases. Here, Suc is a protecting succinyl group, and MCA is a 4-methylcoumaryl-7-amide group; upon cleavage of the C-terminal side of phenylalanine, AMC (7-amino-4-methylcoumarine) is released. By detecting the fluorescence of this AMC, the enzyme activity of chymase can be determined. The assay was performed using a 96-well plate (F16 Black Maxisorp Fluoronunc, manufactured by Nunc), with a reaction mixture volume of 100 μL, in solution C as a buffer solution. First, each nucleic acid was serially diluted to 0.0027-2 μM concentrations in solution C to obtain 50 μL solutions. After 10 μL of the 1 mM substrate prepared in solution C was added thereto, the plate was set to the microplate reader SpectraMax190 (manufactured by Molecular Devices Corporation), and incubated at 37° C. for 5 minutes. Separately, 0.05 μg (or 0.005 μg) of chymase (recombinant, manufactured by SIGMA) was diluted in solution C to obtain a 40 μL chymase solution, and incubated at 37° C. for 5 minutes. The chymase solution was added to the mixture of the nucleic acid and substrate to initiate an enzyme reaction. The final chymase concentration in the reaction mixture was 16.7 nM (or 1.67 nM), the final substrate concentration being 100 μM. The plate containing the reaction mixture was set to the microplate reader SpectraMax190 (manufactured by Molecular Devices Corporation), and examined for time-dependent changes in the fluorescence intensity at 37° C. for 5 minutes (or 30 minutes) (excitation wavelength 380 nm, detection wavelength 460 nm). […]

chymase = target: T2, chymase; assay: Surface plasmon resonance (Biacore T100), aptamer immobilized on SA chip, chymase injected as analyte; type: binding; set-up: key: ++: a sequence that binds to chymase significantly more strongly than the negative control 40N; +: a sequence that binds to chymase equivalently compared with the negative control 40N; conditions: Table 1; about 1000 RU nucleic acid immobilized, chymase 0.2 μM analyte, running buffer solution A; compared with 40N
Protocol: Binding strength is measured using Biacore T100 (manufactured by GE Healthcare). In a method of measurement, the aptamer is first immobilized onto a sensor chip, the amount immobilized being about 1000 RU. 20 μL of a chymase solution for analyte, prepared at 0.2 μM, is injected, and the binding of chymase to the aptamer is detected. An RNA comprising a random nucleotide sequence of 30 or 40 nucleotides is used as a negative control.
The binding activities against chymase of the nucleic acids shown by SEQ ID NO: 4-20 and 22-34 were determined by the surface plasmon resonance method using Biacore T100 (manufactured by GE Healthcare). The sensor chip used was the SA chip, which had streptavidin immobilized thereon. Bound thereto was about 1500 RU of a 16-nucleotide Poly dT with biotin bound to the 5′ end thereof. […] 20 μL of chymase for analyte, prepared at 0.2 μM, was injected. Solution A was used as a running buffer.
The binding activities against chymase of the nucleic acids shown by SEQ ID NO: 38-48 were evaluated by the surface plasmon resonance method. In the evaluations for SEQ ID NO: 38-48, measurements were taken in the same manner as Example 1. Solution C was used as a running buffer.

[3] = Table 5, same manner as Example 3, mean value of two measurements
[4] = Table 4, same manner as Example 3, mean value for 2 to 3 measurements
[5] = Table 3, substrate 100 μM, solution C, 37° C., mean value for 2 to 3 measurements

Molecule | binding activity using Biacore [1] | IC50 [2, 3] [nM] | IC50 [2, 5] [nM] | Binding activity as determined using Biacore (chymase) | also measured
61 (GGGUUAGAUAGAUUUAAAAACCC; 2'-fluoro at CU, RNA at AG, backbone not given here) [compound 61] | ++ | 23 ± 6 |  |  | 
57 (GCAUUUGAGAUAGAUUUAAACAAACGC; 2'-fluoro at CU, RNA at AG, backbone not given here) [compound 57] |  |  |  |  | Binding activity as determined using Biacore [1]: ++; IC50 [2, 4]: 99 ± 13 nM
63 (rGfCfUrAfCrArGrAfUrArGrArGfUfUrArArArGfUrArGfC) [compound 63] | ++ | 23 ± 3 |  |  | 
67 (GGGUUAGAUACAGUUAAAAACCC; listed as RNA, chemistry not fully specified) [compound 67] | + | > 1000 |  |  | 
50 (GGCAUUCUACAGAUAGAGAUAAAGUAGAAUUUAAC; 2'-fluoro at CU, RNA at AG, backbone not given here) [compound 50] |  |  |  |  | Binding activity as determined using Biacore [1]: ++; IC50 [2, 4]: 138 ± 93 nM
52 (CCGUAUAUACCAGGGUAACUAAACGG; 2'-fluoro at CU, RNA at AG, backbone not given here) [compound 52] |  |  |  |  | Binding activity as determined using Biacore [1]: +; IC50 [2, 4]: > 1000 nM
62 (GGGUUGGAUAGAGUUAAGAACCC; 2'-fluoro at CU, RNA at AG, backbone not given here) [compound 62] | ++ | 29 ± 4 |  |  | 
66 (GGGUUAGAUCGAGUUAAAAACCC; listed as RNA, chemistry not fully specified) [compound 66] | + | > 1000 |  |  | 
68 (GGGUUAGAUAGUGUUAAAAACCC; listed as RNA, chemistry not fully specified) [compound 68] | + | > 1000 |  |  | 
60 (GGGUUAGAUAGAGCUAAAAACCC; 2'-fluoro at CU, RNA at AG, backbone not given here) [compound 60] | ++ | 26 ± 6 |  |  | 
B1 |  |  | > 500 | ++ | 
B2 |  |  | 137 ± 9 | + | 
B3 |  |  | 235 ± 55 | + | 
B4 |  |  | 456 ± 261 | ++ | 
B5 |  |  | 80 ± 39 | ++ | 
B6 |  |  | 145 ± 88 | + | 
